This note sets out measurements from patent US20090233960A1, “Kinase Inhibitors” (Devgen NV, priority 2005, published 2009).

“Also recorded” adds a separate entry of the source. Where only a bound is given, the exact number is not on record here.

In one assay the target is T1, human ROCKI/ROCKII mix (Homo sapiens, UniProt O75116).
T1 construct: purchased Upstate Biotechnology 14451
Nature of the assay: ROCK inhibition, fluorescence polarization (FP) IMAP assay. To be noted: 10 μM ATP. Type of assay: biochemical. The protocol:
The compounds of the invention were tested for inhibition of human ROCKI/ROCKII mix.
The inhibition assays were performed with a fluorescence polarization (FP) assay using the commercially available ROCK IMAP Kit from Molecular Devices (Product ID. No. R8093) essentially in accordance with the protocol supplied by the manufacturer. The S6 ribosomal protein-derived substrate used was (Fl)-[…], also obtained from Molecular Devices (Product ID No. R7184). The enzyme mix ROCKI/ROCKII was obtained from Upstate Biotechnology (Product ID No 14451).
In summary, all compounds were screened in the wells of a 384 well plate for enzymatic inhibition with concentrations varying from 100 μM to 0.3 nM using a stepwise three (or two)-fold dilution.
To perform the assay, 1 μl of a solution of the compound to be tested in DMSO (at each concentration) was added to 2 μl of a solution of the enzyme in 10 mM Tris-HCl, 10 mM MgCl2, 0.1% BSA, 0.05% NaN3, pH 7,2. The final concentration of the enzyme was 2.6 nM.
After incubating for 30 minutes at room temperature, 2 μl of a mixture of ATP and the protein substrate in 10 mM Tris-HCl, 10 mM MgCl2, 0.1% BSA, 0.05% NaN3, pH 7.2 was added. The final concentration of the ATP was 10 μM and final concentration of protein substrate was 0.2 μM.
After incubating for 60 minutes at room temperature, 12 μl of the IMAP Binding Solution (mix of the IMAP Binding Buffer A (1×) and the IMAP Binding Reagent (from the ROCK IMAP kit)) was added.
The mixture thus obtained (total volume: 17 μl) was incubated for 60 minutes at room temperature, upon which the fluorescence polarization was measured using an automated plate reader (Perkin Elmer, Model Envision 2100-0010 HTS) with FP filters: excitation filter FITC FP 480 and emission filters FITC FP P-pol 535 and FITC FP S-pol 535 (Perkin-Elmer). The results were fitted to a curve using the XL-Fit algorithm and IC50 values were calculated for each fitted curve, again using the XL-Fit algorithm.
For orientation: Fluorescence polarisation rises when a labelled molecule tumbles more slowly, as on binding a larger partner.

For assay [1], the system named is spontaneous hypertensive rats (SHRs). Nature of the assay: Activity on hypertension in spontaneous hypertensive rats (SAP and heart rate). The format is in vivo, rat. To be noted: SHR, 10 mg/kg, single oral dose. The protocol: The efficiency of compounds of the invention to reduce and/or treat hypertension in an acute model was evaluated using spontaneous hypertensive rats (SHRs).
Compounds were administered as one single dose to SHR. Systolic arterial pressure (SAP) and heart rate were recorded before (−1 hr) and 1, 3, 5, 7, and 24 hours after oral administration of vehicle or test compound.
A reduction in SAP by 10 percent or more (>10%), or a decrease in heart rate by 20 percent or more (>20%), relative to baseline was considered significant.

T1 sequence (O75116 11-552 limits assumed): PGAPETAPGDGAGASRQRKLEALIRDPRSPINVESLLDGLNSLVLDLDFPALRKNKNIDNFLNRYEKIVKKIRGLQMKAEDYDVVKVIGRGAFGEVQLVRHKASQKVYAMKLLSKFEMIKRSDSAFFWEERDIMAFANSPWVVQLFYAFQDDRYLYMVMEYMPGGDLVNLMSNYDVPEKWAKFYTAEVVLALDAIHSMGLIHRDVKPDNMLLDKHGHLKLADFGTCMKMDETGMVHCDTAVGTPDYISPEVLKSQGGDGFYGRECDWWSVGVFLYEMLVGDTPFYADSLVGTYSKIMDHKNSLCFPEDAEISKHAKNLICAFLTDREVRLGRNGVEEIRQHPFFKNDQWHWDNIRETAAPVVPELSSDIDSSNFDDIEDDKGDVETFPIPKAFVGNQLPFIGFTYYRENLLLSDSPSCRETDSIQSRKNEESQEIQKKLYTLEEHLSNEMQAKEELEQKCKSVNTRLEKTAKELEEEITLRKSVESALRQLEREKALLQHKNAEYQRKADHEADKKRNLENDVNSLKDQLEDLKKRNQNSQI

`CC(N)c1ccc(C(=O)Nc2ccncc2)cc1O` (stereo not drawn) [Compound 1, 4-(1-amino-ethyl)-3-hydroxy-N-pyridin-4-yl-benzamide] displayed an IC50 against human ROCKI/ROCKII mix of 500 to 5000 nM.

In the case of `CC(N)c1ccc(C(=O)Nc2ccncc2)cc1[N+](=O)[O-]` (stereo not drawn) [Compound 2, 4-(1-amino-ethyl)-3-nitro-N-pyridin-4-yl-benzamide], the IC50 on human ROCKI/ROCKII mix was 50 to 500 nM.

On human ROCKI/ROCKII mix, `CC(N)c1ccc(C(=O)Nc2ccncc2)cc1N` (stereo not drawn) [Compound 3, 3-amino-4-(1-amino-ethyl)-N-pyridin-4-yl-benzamide] displayed an IC50 of 500 to 5000 nM.

For the compound `CC(N)c1ccc(C(=O)Nc2ccncc2)cc1-c1ccc(Cl)cc1` (stereo not drawn) [Compound 4, 6-(1-amino-ethyl)-4′-chloro-biphenyl-3-carboxylic acid pyridin-4-ylamide], the IC50 on human ROCKI/ROCKII mix was below 50 nM.

As to `CC(N)c1ccc(C(=O)Nc2ccncc2)cc1-c1cccs1` (stereo not drawn) [Compound 5, 4-(1-amino-ethyl)-N-pyridin-4-yl-3-thiophen-2-yl-benzamide], the IC50 against human ROCKI/ROCKII mix is below 50 nM.

`COc1ccc(-c2cc(C(=O)Nc3ccncc3)ccc2C(C)N)cc1` (stereo not drawn) [Compound 6, 6-(1-amino-ethyl)-4′-methoxy-biphenyl-3-carboxylic acid pyridin-4-ylamide] showed a concentration for half-maximal inhibition (IC50) against human ROCKI/ROCKII mix of 50 to 500 nM.

At human ROCKI/ROCKII mix, `CC(N)c1ccc(C(=O)Nc2ccncc2)cc1-c1ccoc1` (stereo not drawn) [Compound 7, 4-(1-amino-ethyl)-3-furan-3-yl-N-pyridin-4-yl-benzamide] had an IC50 of 50 to 500 nM.

Consider `CC(N)c1ccc(C(=O)Nc2ccncc2)cc1OCCO` (stereo not drawn) [Compound 8, 4-(1-amino-ethyl)-3-(2-hydroxy-ethoxy)-N-pyridin-4-yl-benzamide], for which the IC50 against human ROCKI/ROCKII mix lay in the range of 500 to 5000 nM.

`CC(N)c1ccc(C(=O)Nc2ccncc2)cc1OCCCO` (stereo not drawn) [Compound 9, 4-(1-amino-ethyl)-3-(3-hydroxy-propoxy)-N-pyridin-4-yl-benzamide] came in with an IC50 against human ROCKI/ROCKII mix of 500 to 5000 nM.

The compound `CC(N)c1ccc(C(=O)Nc2ccncc2)cc1OCCN` (stereo not drawn) [Compound 10, 3-(2-amino-ethoxy)-4-(1-amino-ethyl)-N-pyridin-4-yl-benzamide] gave an IC50 on human ROCKI/ROCKII mix of 500 to 5000 nM.

For the compound `CC(N)c1ccc(C(=O)Nc2ccncc2)cc1OCCCN` (stereo not drawn) [Compound 11, 4-(1-amino-ethyl)-3-(3-amino-propoxy)-N-pyridin-4-yl-benzamide], the half-inhibitory concentration (IC50) at human ROCKI/ROCKII mix fell in the range of 500 to 5000 nM.

In turn, `CC(N)c1ccc(C(=O)Nc2ccncc2)cc1OCc1ccccc1` (stereo not drawn) [Compound 12, 4-(1-amino-ethyl)-3-benzyloxy-N-pyridin-4-yl-benzamide] yielded an IC50 on human ROCKI/ROCKII mix of 50 to 500 nM.

`CC(N)c1ccc(C(=O)Nc2ccncc2)cc1NC(=S)Nc1ccccc1` (stereo not drawn) [Compound 13, 4-(1-amino-ethyl)-3-(3-phenyl-thioureido)-N-pyridin-4-yl-benzamide]: at human ROCKI/ROCKII mix, the half-inhibitory concentration (IC50) is 50 to 500 nM.

As for `CC(N)c1ccc(C(=O)Nc2ccncc2)cc1NC(=O)Nc1ccccc1` (stereo not drawn) [Compound 14, 4-(1-amino-ethyl)-3-(3-phenyl-ureido)-N-pyridin-4-yl-benzamide], on human ROCKI/ROCKII mix, the IC50 is 50 to 500 nM.

Compound `CC(N)c1ccc(C(=O)Nc2ccncc2)cc1NCc1ccco1` (stereo not drawn) [Compound 16, 4-(1-amino-ethyl)-3-[(furan-2-ylmethyl)-amino]-N-pyridin-4-yl-benzamide] came in with an IC50 against human ROCKI/ROCKII mix of 50 to 500 nM.

For the compound `CC(N)c1ccc(C(=O)Nc2ccncc2)cc1NC(=O)c1ccccc1` (stereo not drawn) [Compound 17, 4-(1-amino-ethyl)-3-benzoylamino-N-pyridin-4-yl-benzamide], the IC50 on human ROCKI/ROCKII mix lay in the range of 50 to 500 nM.

At human ROCKI/ROCKII mix, `CC(N)c1ccc(C(=O)Nc2ccncc2)cc1NC(=O)c1ccco1` (stereo not drawn) [Compound 18, furan-2-carboxylic acid [2-(1-amino-ethyl)-5-(pyridin-4-ylcarbamoyl)-phenyl]-amide] had an IC50 of 50 to 500 nM.

On to `COc1cccc(C(=O)Nc2cc(C(=O)Nc3ccncc3)ccc2C(C)N)c1` (stereo not drawn) [Compound 19, 4-(1-amino-ethyl)-3-(3-methoxy-benzoylamino)-N-pyridin-4-yl-benzamide], for which, at human ROCKI/ROCKII mix, the IC50 was below 50 nM.

At human ROCKI/ROCKII mix, `CC(N)c1ccc(C(=O)Nc2ccncc2)cc1NC(=O)c1cccc(Cl)c1` (stereo not drawn) [Compound 20] came in with an IC50 of 50 to 500 nM.

In the case of `COc1ccc(C(=O)Nc2cc(C(=O)Nc3ccncc3)ccc2C(C)N)cc1` (stereo not drawn) [Compound 21, 4-(1-Amino-ethyl)-3-(4-methoxy-benzoylamino)-N-pyridin-4-yl-benzamide], the IC50 on human ROCKI/ROCKII mix was below 50 nM.

For `CC(N)c1ccc(C(=O)Nc2ccncc2)cc1NC(=O)c1ccc(Cl)cc1` (stereo not drawn) [Compound 22, 4-(1-Amino-ethyl)-3-(4-chloro-benzoylamino)-N-pyridin-4-yl-benzamide], the IC50 against human ROCKI/ROCKII mix is 50 to 500 nM.

At human ROCKI/ROCKII mix, `CC(N)c1ccc(C(=O)Nc2ccncc2)cc1-c1cccc(Cl)c1` (stereo not drawn) [Compound 24, 6-(1-aminoethyl)-3′-chloro-N-pyridin-4-ylbiphenyl-3-carboxamide] gave an IC50 below 50 nM.

With `CC(N)c1ccc(C(=O)Nc2ccncc2)cc1-c1ccc(F)cc1` (stereo not drawn) [Compound 26, 6-(1-aminoethyl)-4′-fluoro-N-pyridin-4-ylbiphenyl-3-carboxamide], the IC50 against human ROCKI/ROCKII mix was below 50 nM.

On human ROCKI/ROCKII mix, `CC(N)c1ccc(C(=O)Nc2ccncc2)cc1-c1ccc2ccccc2c1` (stereo not drawn) [Compound 32, 4-(1-aminoethyl)-3-(2-naphthyl)-N-pyridin-4-ylbenzamide] yielded an IC50 below 50 nM.

`C[C@@H](N)c1ccc(C(=O)Nc2ccncc2)cc1-c1cccs1` [Compound 103, 4-((R)-1-Amino-ethyl)-N-pyridin-4-yl-3-thiophen-2-yl-benzamide] came in with an IC50 on human ROCKI/ROCKII mix below 50 nM.

Regarding `C[C@H](N)c1ccc(C(=O)Nc2ccncc2)cc1-c1cccs1` [Compound 104, 4-((S)-1-Amino-ethyl)-N-pyridin-4-yl-3-thiophen-2-yl-benzamide], the IC50 at human ROCKI/ROCKII mix was in the range of 50 to 500 nM.

In the case of `C[C@@H](N)[C@H]1CC[C@H](C(=O)Nc2ccncc2)CC1` [Compound Y-27632], in assay [1], the “hypotensive response (systolic arterial pressure)” value was “not significant; also recorded: completely inactive”.

By IC50 is commonly meant the concentration that gives 50% inhibition. Low readings indicate higher potency, high ones lower potency.
